Key:
Assay type in all cases: cell-based, human
BEAS-2B = experiment: Proliferation of LPS/serum-stimulated cells (cell numbers after 24 h); conditions: BEAS-2B, 24 h; for % inhibition of proliferation: LPS/serum-stimulated
Protocol: (§1) • Cell cultures. The transformed human bronchial epithelial cell line BEAS-2B (Clonetics Cell Systems, St. Katharinen, Germany) and the normal human bronchial epithelial cell line in primary culture (American Type Culture Collection, Manassas, Va., USA) were cultured in T-25-tissue flasks in bronchial/tracheal epithelial cell basal medium (BEBM) supplemented with a variety of growth factors including bovine pituitary extract (0,052 mg/mL), human recombinant epidermal growth factor (0.5 ng/mL), hydrocortisone (0.5 μg/mL), epinephrine (0.5 μg/mL), transferrin (0.01 mg/mL), insulin (5 μg/mL), retinoic acid (0.1 ng/mL), triiodthyronine (6.5 ng/mL), gentamicin (0.05 mg/mL) and amphotericin (0.05 μg/mL), all purchased from Clonetics Cell Systems (St. Katharinen, Germany). Cultures were held at 37° C. in a humidified atmosphere of 5% CO2 in air and the medium was changed every other day. • Stimulation of cells and fatty acid supplementation. Cis-9,trans-11-CLA and linoleic acid (LA) were obtained from Matreya Inc. (Pleasant Gap, Pa., USA). Purified fatty acids in oil form were dissolved in 96% ethanol to give a 20-mM stock solution, which was further diluted in growth medium to produce the range of test concentrations (20 μg/mL, 10 μg/mL and 5 μg/mL CLA and LA, respectively). At confluence, the cells were detached by exposure to trypsin/EDTA solution (0.05/0.02% in Ca^2+- and Mg^2+-free phosphate buffered saline; Biochrom AG, Krefeld, Germany) and reseeded in 12-well plates at a concentration of 1×10^5 cells/well and cultured for 24 h to allow the cells to attach to the substratum. The medium was then replaced and a final volume of 1 ml of each CLA- and LA-test concentrations, supplemented with 5 μg LPS/mL (lipopolysaccharide, E-coli serotype 026:B6, Sigma, Taufkirchen, Germany) and 10% serum from allergic donors, was added to the wells. A similar volume of fatty acid-free medium containing the indicated stimuli and 0.4% ethanol, corresponding to the max. volume in experimental wells, was used in stimulated control. 1 ml of fresh growth medium containing 0.4% ethanol without any fatty acid and stimuli underwent the same measures of preparation and represented the unstimulated control. After incubation for 24 h at 37° C., supernatants were harvested, separated from non-adherent cells and cell debris by centrifugation (1300 rpm, 10 min), and kept at −20° C. until cytokine analysis. Cells were trypsinised to determine cell numbers and allow quantification of differences in cell proliferation in response to different treatments. • Measurement of IL-6 and IL-8 in cell culture supernatants. IL-6 and IL-8 production of epithelial cells were estimated in duplicate by enzyme-linked immunosorbent assay using commercially available ELISA kits (Pharmingen, Heidelberg, Germany) according to the manufacturer's guidelines. Standard curves and blank buffer were included in duplicate in each assay. When necessary, samples were diluted to fit into the assay range. Specific interleukin concentrations were expressed as picograms of interleukin per millilitre. • Estimation of cytokine gene expression with RT-PCR. Cultures of BEAS-2B and NHBE at an initial density of 1×10^5 cells/well were stimulated as described above and treated with cis-9,trans-11-CLA or LA in the highest concentration (20 μg/mL) for 4 h or 12 h before total cellular RNA was isolated for cytokine gene expression analysis by reverse transcriptase-polymerase chain reaction. Total RNA preparations were performed by DNase treatment according to the standard protocol of the High-Pure™ RNA isolation kit from Roche (Mannheim, Germany). For RT-PCR analysis, first strand cDNA was synthesized from extracted RNA using random primers, reagents and conditions supplied in the ProSTAR™ First-Strand RT-PCR kit from Stratagene (Amsterdam, Netherlands). One-tenth of the synthesized cDNA was subjected to PCRamplification in a total volume of 25 μl. […]

NHBE = experiment: as above
Protocol: as §1

IL-6 [1] = experiment: IL-6 in cell culture supernatants by ELISA, stimulated BEAS-2B; conditions: BEAS-2B, 24 h
Protocol: as §1

IL-8 [2] = experiment: IL-8 in cell culture supernatants by ELISA, stimulated BEAS-2B; conditions: BEAS-2B, 24 h
Protocol: as §1

IL-6 [3] = experiment: IL-6 in cell culture supernatants by ELISA, stimulated NHBE; conditions: 24 h
Protocol: as §1

IL-8 [4] = experiment: IL-8 in cell culture supernatants by ELISA, stimulated NHBE; conditions: 24 h
Protocol: as §1

IL-6 mRNA = experiment: Quantification of IL-6 mRNA by RT-PCR in stimulated bronchial epithelial cells; conditions: 20 μg/mL, 4 h and 12 h, LPS/serum-stimulated, RT-PCR with cyclophilin as internal standard
Protocol: (§2) • Cell cultures. The transformed human bronchial epithelial cell line BEAS-2B (Clonetics Cell Systems, St. Katharinen, Germany) and the normal human bronchial epithelial cell line in primary culture (American Type Culture Collection, Manassas, Va., USA) were cultured in T-25-tissue flasks in bronchial/tracheal epithelial cell basal medium (BEBM) supplemented with a variety of growth factors including bovine pituitary extract (0,052 mg/mL), human recombinant epidermal growth factor (0.5 ng/mL), hydrocortisone (0.5 μg/mL), epinephrine (0.5 μg/mL), transferrin (0.01 mg/mL), insulin (5 μg/mL), retinoic acid (0.1 ng/mL), triiodthyronine (6.5 ng/mL), gentamicin (0.05 mg/mL) and amphotericin (0.05 μg/mL), all purchased from Clonetics Cell Systems (St. Katharinen, Germany). Cultures were held at 37° C. in a humidified atmosphere of 5% CO2 in air and the medium was changed every other day. • Stimulation of cells and fatty acid supplementation. […] Cells were trypsinised to determine cell numbers and allow quantification of differences in cell proliferation in response to different treatments. • Measurement of IL-6 and IL-8 in cell culture supernatants. […] Specific interleukin concentrations were expressed as picograms of interleukin per millilitre. • Estimation of cytokine gene expression with RT-PCR. […]

IL-8 mRNA = experiment: Quantification of IL-8 mRNA by RT-PCR in stimulated bronchial epithelial cells; conditions: 20 μg/mL, 4 h and 12 h, LPS/serum-stimulated, RT-PCR with cyclophilin as internal standard
Protocol: as §2

[5] = Homo sapiens, 5 μg/mL, vs stimulated control+, read-out: % inhibition of IL-6-secretion
[6] = Homo sapiens, 10 μg/mL, vs stimulated control+, read-out: % inhibition of IL-6-secretion
[7] = Homo sapiens, 20 μg/mL, vs stimulated control+, read-out: % inhibition of IL-6-secretion
[8] = Homo sapiens, 5 μg/mL, vs stimulated control+, read-out: % inhibition of IL-8-secretion
[9] = Homo sapiens, 10 μg/mL, vs stimulated control+, read-out: % inhibition of IL-8-secretion
[10] = Homo sapiens, 20 μg/mL, vs stimulated control+, read-out: % inhibition of IL-8-secretion

Q: For `CCCCC/C=C\C/C=C\CCCCCCCC(=O)O` [LA, cis-9,cis-12-octadecadienoic acid, reference compound], which “% inhibition of proliferation” value (BEAS-2B; 5 μg/mL) is on record?
A: no effect

Q: What about the “% inhibition of proliferation” value (BEAS-2B; 10 μg/mL) of the same molecule?
A: no effect

Q: And the “effect on proliferation at lower concentrations” value (BEAS-2B; concentrations below 20 μg/mL)?
A: caused cell growth

Q: What about the inhibition at 20 µg/mL (BEAS-2B; Homo sapiens, 20 μg/mL, 5 μg LPS/mL + 10% serum from allergic donors) of the same molecule?
A: 4.7 ± 6.9%

Q: And the “% inhibition of proliferation” value (NHBE; 5 μg/mL, LPS/serum-stimulated)?
A: no effect

Q: What about the “% inhibition of proliferation” value (NHBE; 10 μg/mL, LPS/serum-stimulated) of the same molecule?
A: no effect

Q: And the inhibition at 20 µg/mL (NHBE; Homo sapiens, 20 μg/mL, LPS/serum-stimulated)?
A: 8.4 ± 2.1%

Q: What about the “effect on proliferation at lower concentrations” value (NHBE; concentrations below 20 μg/mL) of the same molecule?
A: caused cell growth

Q: What about the “pg IL (cytokine release/100.000 cells)” value (IL-6 [1]; 5 μg/mL) of the same molecule?
A: 1440 ± 78 pg/100.000 cells

Q: And the “pg IL (cytokine release/100.000 cells)” value (IL-6 [1]; 10 μg/mL)?
A: 1220 ± 120 pg/100.000 cells

Q: And the “pg IL (cytokine release/100.000 cells)” value (IL-6 [1]; 20 μg/mL)?
A: 1181 ± 256 pg/100.000 cells

Q: And the inhibition at 5 µg/mL (IL-6 [1]; [5])?
A: 23.1 ± 8.9%

Q: And the inhibition at 10 µg/mL (IL-6 [1]; [6])?
A: 38.4 ± 6.6%

Q: What about the inhibition at 20 µg/mL (IL-6 [1]; [7]) of the same molecule?
A: 50.2 ± 14.1%

Q: And the “pg IL (cytokine release/100.000 cells)” value (IL-8 [2]; 5 μg/mL)?
A: 1483 ± 209 pg/100.000 cells

Q: What about the “pg IL (cytokine release/100.000 cells)” value (IL-8 [2]; 10 μg/mL) of the same molecule?
A: 1341 ± 110 pg/100.000 cells

Q: And the “pg IL (cytokine release/100.000 cells)” value (IL-8 [2]; 20 μg/mL)?
A: 1533 ± 121 pg/100.000 cells

Q: What about the inhibition at 5 µg/mL (IL-8 [2]; [8]) of the same molecule?
A: 19.3 ± 8.7%

Q: What about the inhibition at 10 µg/mL (IL-8 [2]; [9]) of the same molecule?
A: 30.6 ± 3.6%

Q: And the inhibition at 20 µg/mL (IL-8 [2]; [10])?
A: 33.5 ± 5%

Q: And the “pg IL (cytokine release/100.000 cells)” value (IL-6 [3]; 5 μg/mL)?
A: 3052 ± 292 pg/100.000 cells

Q: What about the “pg IL (cytokine release/100.000 cells)” value (IL-6 [3]; 10 μg/mL) of the same molecule?
A: 2906 ± 530 pg/100.000 cells

Q: What about the “pg IL (cytokine release/100.000 cells)” value (IL-6 [3]; 20 μg/mL) of the same molecule?
A: 2007 ± 924 pg/100.000 cells

Q: And the inhibition at 5 µg/mL (IL-6 [3]; [5])?
A: 32.1 ± 5.6%

Q: What about the inhibition at 10 µg/mL (IL-6 [3]; [6]) of the same molecule?
A: 35 ± 8.6%

Q: What about the inhibition at 20 µg/mL (IL-6 [3]; [7]) of the same molecule?
A: 60 ± 16.3%

Q: And the “pg IL (cytokine release/100.000 cells)” value (IL-8 [4]; 5 μg/mL)?
A: 6820 ± 543 pg/100.000 cells

Q: And the “pg IL (cytokine release/100.000 cells)” value (IL-8 [4]; 10 μg/mL)?
A: 6252 ± 462 pg/100.000 cells

Q: And the “pg IL (cytokine release/100.000 cells)” value (IL-8 [4]; 20 μg/mL)?
A: 5420 ± 1032 pg/100.000 cells

Q: And the inhibition at 5 µg/mL (IL-8 [4]; [8])?
A: 22.8 ± 5.2%

Q: What about the inhibition at 10 µg/mL (IL-8 [4]; [9]) of the same molecule?
A: 27.8 ± 10.8%

Q: What about the inhibition at 20 µg/mL (IL-8 [4]; [10]) of the same molecule?
A: 43.3 ± 14.3%

Q: What about the “IL-6 mRNA accumulation compared with stimulated control (c+)” value (IL-6 mRNA) of the same molecule?
A: no effect

Q: And the “IL-8 mRNA accumulation compared with stimulated control (c+)” value (IL-8 mRNA)?
A: no effect
